Measurements: US7414071B2, “Methods of treatment with selective EP4 receptor agonists” (Pfizer Inc., priority 2002, dated 2008)

How the values were obtained:
[1] = tested on: New Zealand White male rabbits; experiment: In vivo anesthetized rabbit model (hypotensive effect: mean arterial pressure and heart rate)
Method: Methods: New Zealand White male rabbits (3-4 kg) are anesthetized with sodium pentobarbital (30 mg/kg, i.v.) and a surgical plane of anesthesia is maintained by a continuous infusion of sodium pentobarbital (16 mg/kg/hr) via an ear vein catheter. A tracheotomy is performed through a ventral midline cervical incision and the rabbits are ventilated with 100% oxygen using a positive pressure ventilator. Body temperature is maintained at 38.5° C. using a heating pad connected to a YSI temperature controller model 72 (Yellow Springs Instruments, Yellow Springs, […].). Fluid-filled catheters are placed in the right jugular vein (for intravenous drug administration) and in the right carotid artery for arterial pressure monitoring and for blood gas analysis using a model 248 blood gas analyzer (Bayer Diagnostics, Norwood, Mass.). The ventilator is adjusted as needed to maintain blood pH and pCO2 within normal physiological ranges for rabbits. […] Blood is sampled after dosing or during the infusion of the test compound to determine plasma concentrations of the test compounds.
Thus, dosing volumes were 0.2 ml/kg (Group A) subcutaneously or 5 ml/h (Groups B, C, and D) as an intravenous (IV) infusion. The term “mgA” means the number of milligrams adjusted for active compound (e.g. corrected for salt etc.).
Dosing: Four groups (Groups A, B, C, and D) of two rabbits each were dosed as follows.

[2] = tested on: M. fascicularis primates; experiment: In vivo primate model (hypotensive effect: mean arterial pressure and heart rate); settings: monkeys; for mean arterial pressure (MAP) / heart rate (HR): 0.1 mgA/kg SC bolus, mean of 2; for mean arterial pressure (MAP): baseline 101; for heart rate (HR): baseline 161
[3] = Group D, 1.67 μg/kg/h, 4 hour IV infusion
[4] = Group A, 1 mgA/kg SC, three monkeys
[5] = Group C, 0.1 mgA/kg SC, 2 monkeys

O=C([O-])c1ccc(CCCN2C(=O)CC[C@@H]2CC[C@@H](O)Cc2cccc(C(F)(F)F)c2)s1.[Na+] [Compound 3M sodium salt]
heart rate (HR) ([1]; Group C, 16.7 μg/kg/hr IV infusion for 4 hours, 90 min, mean of 2, baseline 291): 301 beats/minute
mean arterial pressure (MAP) ([1]; Group C, 16.7 μg/kg/hr IV infusion for 4 hours, 120 min, mean of 2, baseline 95): 85 mm Hg
heart rate (HR) ([1]; Group C, 16.7 μg/kg/hr IV infusion for 4 hours, 120 min, mean of 2, baseline 291): 304 beats/minute
mean arterial pressure (MAP) ([1]; Group C, 16.7 μg/kg/hr IV infusion for 4 hours, 150 min, mean of 2, baseline 95): 85 mm Hg
heart rate (HR) ([1]; Group C, 16.7 μg/kg/hr IV infusion for 4 hours, 150 min, mean of 2, baseline 291): 301 beats/minute
mean arterial pressure (MAP) ([1]; Group C, 16.7 μg/kg/hr IV infusion for 4 hours, 180 min, mean of 2, baseline 95): 85 mm Hg
heart rate (HR) ([1]; Group C, 16.7 μg/kg/hr IV infusion for 4 hours, 180 min, mean of 2, baseline 291): 298 beats/minute
mean arterial pressure (MAP) ([1]; Group C, 16.7 μg/kg/hr IV infusion for 4 hours, 210 min, mean of 2, baseline 95): 89 mm Hg
heart rate (HR) ([1]; Group C, 16.7 μg/kg/hr IV infusion for 4 hours, 210 min, mean of 2, baseline 291): 307 beats/minute
mean arterial pressure (MAP) ([1]; Group C, 16.7 μg/kg/hr IV infusion for 4 hours, 240 min, mean of 2, baseline 95): 89 mm Hg
heart rate (HR) ([1]; Group C, 16.7 μg/kg/hr IV infusion for 4 hours, 240 min, mean of 2, baseline 291): 306 beats/minute
effect on heart rate [1, 3]: no significant change
effect on mean arterial pressure [1, 3]: no significant change
mean arterial pressure (MAP) ([1]; Group D, 1.67 μg/kg/hr IV infusion for 4 hours, 5 min, mean of 2, baseline 89): 85 mm Hg
heart rate (HR) ([1]; Group D, 1.67 μg/kg/hr IV infusion for 4 hours, 5 min, mean of 2, baseline 260): 258 beats/minute
mean arterial pressure (MAP) ([1]; Group D, 1.67 μg/kg/hr IV infusion for 4 hours, 10 min, mean of 2, baseline 89): 87 mm Hg
heart rate (HR) ([1]; Group D, 1.67 μg/kg/hr IV infusion for 4 hours, 10 min, mean of 2, baseline 260): 260 beats/minute
mean arterial pressure (MAP) ([1]; Group D, 1.67 μg/kg/hr IV infusion for 4 hours, 15 min, mean of 2, baseline 89): 85 mm Hg
heart rate (HR) ([1]; Group D, 1.67 μg/kg/hr IV infusion for 4 hours, 15 min, mean of 2, baseline 260): 262 beats/minute
mean arterial pressure (MAP) ([1]; Group D, 1.67 μg/kg/hr IV infusion for 4 hours, 30 min, mean of 2, baseline 89): 85 mm Hg
heart rate (HR) ([1]; Group D, 1.67 μg/kg/hr IV infusion for 4 hours, 30 min, mean of 2, baseline 260): 262 beats/minute
mean arterial pressure (MAP) ([1]; Group D, 1.67 μg/kg/hr IV infusion for 4 hours, 60 min, mean of 2, baseline 89): 87 mm Hg
heart rate (HR) ([1]; Group D, 1.67 μg/kg/hr IV infusion for 4 hours, 60 min, mean of 2, baseline 260): 255 beats/minute
mean arterial pressure (MAP) ([1]; Group D, 1.67 μg/kg/hr IV infusion for 4 hours, 90 min, mean of 2, baseline 89): 87 mm Hg
heart rate (HR) ([1]; Group D, 1.67 μg/kg/hr IV infusion for 4 hours, 90 min, mean of 2, baseline 260): 253 beats/minute
mean arterial pressure (MAP) ([1]; Group D, 1.67 μg/kg/hr IV infusion for 4 hours, 120 min, mean of 2, baseline 89): 85 mm Hg
heart rate (HR) ([1]; Group D, 1.67 μg/kg/hr IV infusion for 4 hours, 120 min, mean of 2, baseline 260): 246 beats/minute
mean arterial pressure (MAP) ([1]; Group D, 1.67 μg/kg/hr IV infusion for 4 hours, 150 min, mean of 2, baseline 89): 87 mm Hg
heart rate (HR) ([1]; Group D, 1.67 μg/kg/hr IV infusion for 4 hours, 150 min, mean of 2, baseline 260): 246 beats/minute
mean arterial pressure (MAP) ([1]; Group D, 1.67 μg/kg/hr IV infusion for 4 hours, 180 min, mean of 2, baseline 89): 87 mm Hg
heart rate (HR) ([1]; Group D, 1.67 μg/kg/hr IV infusion for 4 hours, 180 min, mean of 2, baseline 260): 246 beats/minute
mean arterial pressure (MAP) ([1]; Group D, 1.67 μg/kg/hr IV infusion for 4 hours, 210 min, mean of 2, baseline 89): 85 mm Hg
heart rate (HR) ([1]; Group D, 1.67 μg/kg/hr IV infusion for 4 hours, 210 min, mean of 2, baseline 260): 247 beats/minute
mean arterial pressure (MAP) ([1]; Group D, 1.67 μg/kg/hr IV infusion for 4 hours, 240 min, mean of 2, baseline 89): 92 mm Hg
heart rate (HR) ([1]; Group D, 1.67 μg/kg/hr IV infusion for 4 hours, 240 min, mean of 2, baseline 260): 257 beats/minute
duration of hypotension ([2]; Group A, 1 mgA/kg SC): sustained over the 4 hours post-dose
onset of hypotension ([2]; Group A, 1 mgA/kg SC): < 2 min
effect on heart rate [2, 4]: transient increase in heart rate
effect on mean arterial pressure [2, 4]: decrease in mean arterial pressure
duration of hypotension ([2]; Group C, 0.1 mgA/kg SC): sustained over the 4 hours post-dose
onset of hypotension ([2]; Group C, 0.1 mgA/kg SC): < 4 min
mean arterial pressure (MAP) ([2]; Group C, 5 min post-dose): 91 mm Hg
heart rate (HR) ([2]; Group C, 5 min post-dose): 203 beats/minute
mean arterial pressure (MAP) ([2]; Group C, 10 min post-dose): 57 mm Hg
heart rate (HR) ([2]; Group C, 10 min post-dose): 206 beats/minute
mean arterial pressure (MAP) ([2]; Group C, 15 min post-dose): 51 mm Hg
heart rate (HR) ([2]; Group C, 15 min post-dose): 187 beats/minute
mean arterial pressure (MAP) ([2]; Group C, 30 min post-dose): 53 mm Hg
heart rate (HR) ([2]; Group C, 30 min post-dose): 190 beats/minute
mean arterial pressure (MAP) ([2]; Group C, 60 min post-dose): 58 mm Hg
heart rate (HR) ([2]; Group C, 60 min post-dose): 180 beats/minute
mean arterial pressure (MAP) ([2]; Group C, 90 min post-dose): 58 mm Hg
heart rate (HR) ([2]; Group C, 90 min post-dose): 180 beats/minute
mean arterial pressure (MAP) ([2]; Group C, 120 min post-dose): 62 mm Hg
heart rate (HR) ([2]; Group C, 120 min post-dose): 183 beats/minute
mean arterial pressure (MAP) ([2]; Group C, 150 min post-dose): 65 mm Hg
heart rate (HR) ([2]; Group C, 150 min post-dose): 187 beats/minute
mean arterial pressure (MAP) ([2]; Group C, 180 min post-dose): 66 mm Hg
heart rate (HR) ([2]; Group C, 180 min post-dose): 187 beats/minute
mean arterial pressure (MAP) ([2]; Group C, 210 min post-dose): 71 mm Hg
heart rate (HR) ([2]; Group C, 210 min post-dose): 191 beats/minute
mean arterial pressure (MAP) ([2]; Group C, 240 min post-dose): 79 mm Hg
heart rate (HR) ([2]; Group C, 240 min post-dose): 193 beats/minute
effect on heart rate [2, 5]: transient increase in heart rate that returned toward normal but leveled off and remained elevated over the 4 hours post-dose
effect on mean arterial pressure [2, 5]: decrease in mean arterial pressure
